Here are results for 45 molecules from article PMC3265452 (PLoS Neglected Tropical Diseases, 2012).

Where a name gives a salt, the structure may show the parent alone.

For one assay, the target named is AaDOP2 (Aedes aegypti, UniProt H6D5H2). Briefly: AaDOP2 antagonist screen of the LOPAC1280 library (HEK-CRELuc-Aadop2 cells, luminescence). It counts as cell-based.
AaDOP2, sequence (H6D5H2 1-476): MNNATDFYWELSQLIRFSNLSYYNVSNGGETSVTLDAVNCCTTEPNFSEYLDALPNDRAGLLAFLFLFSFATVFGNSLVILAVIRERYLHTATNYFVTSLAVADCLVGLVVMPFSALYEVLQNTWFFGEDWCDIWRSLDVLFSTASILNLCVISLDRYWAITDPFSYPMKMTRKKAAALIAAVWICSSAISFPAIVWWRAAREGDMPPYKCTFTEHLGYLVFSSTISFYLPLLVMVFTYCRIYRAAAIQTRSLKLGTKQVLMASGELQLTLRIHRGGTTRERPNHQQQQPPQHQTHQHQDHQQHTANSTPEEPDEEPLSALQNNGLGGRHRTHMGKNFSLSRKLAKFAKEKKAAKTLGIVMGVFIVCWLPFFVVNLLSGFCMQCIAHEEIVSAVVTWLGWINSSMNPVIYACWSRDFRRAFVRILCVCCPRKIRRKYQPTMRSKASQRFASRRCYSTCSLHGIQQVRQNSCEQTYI
Conditions: not given
In the case of `CN1CCC[C@H]1c1cccnc1.O=C(O)C(O)C(O)C(=O)O.O=C(O)C(O)C(O)C(=O)O` [Compound 857, (-)-Nicotine hydrogen tartrate salt], the “Compound effect (percent receptor signaling in presence of test compound, relative lux units relative to the SCH23390 control)” value is 92.
In the case of `N=C(NCCC[C@H](N)C(=O)O)N[N+](=O)[O-]` [Compound 858, NG-Nitro-L-arginine], the “Compound effect (percent receptor signaling in presence of test compound, relative lux units relative to the SCH23390 control)” value is reported as 95.
The same measure, in the same setting: to `c1ccc2c(CC3=NCCN3)cccc2c1` [Compound 859, Naphazoline hydrochloride] belongs 90; to `O=C(O)CC[N+](=O)[O-]` [Compound 860, 3-Nitropropionic acid], 91.
`CNCCC=C1c2ccccc2CCc2ccccc21` [Compound 863, Nortriptyline hydrochloride]: the “Compound effect (percent receptor signaling in presence of test compound, relative lux units relative to the SCH23390 control)” value is on record as 4.
`COC(=O)C1=C(C)NC(C)=C(C(=O)OCCN(C)Cc2ccccc2)C1c1cccc([N+](=O)[O-])c1` (stereo not shown) [Compound 865, Nicardipine hydrochloride]: the “Compound effect (percent receptor signaling in presence of test compound, relative lux units relative to the SCH23390 control)” value amounted to 76.
Take `COC(=O)C1=C(C)NC(C)=C(C(=O)OC)C1c1ccccc1[N+](=O)[O-]` [Compound 866, Nifedipine]: the “Compound effect (percent receptor signaling in presence of test compound, relative lux units relative to the SCH23390 control)” value worked out at 78.
As to `C=CCN1CC[C@]23c4c5ccc(O)c4O[C@H]2C(=O)CC[C@@]3(O)[C@H]1C5` [Compound 867, Naloxone hydrochloride], the “Compound effect (percent receptor signaling in presence of test compound, relative lux units relative to the SCH23390 control)” value was determined as 75.
Take `O=[N+]([O-])c1cccc2cn[nH]c12` [Compound 868, 7-Nitroindazole]: the “Compound effect (percent receptor signaling in presence of test compound, relative lux units relative to the SCH23390 control)” value was 78.
For `C[N+](C)(C)CCC(=O)c1cccc2ccccc12.[I-]` [Compound 870, 2-(alpha-Naphthoyl)ethyltrimethylammonium iodide], the “Compound effect (percent receptor signaling in presence of test compound, relative lux units relative to the SCH23390 control)” value was determined as 74.
For `CC1(C)NC(=O)N(c2ccc([N+](=O)[O-])c(C(F)(F)F)c2)C1=O` [Compound 872, Nilutamide], the “Compound effect (percent receptor signaling in presence of test compound, relative lux units relative to the SCH23390 control)” value came to 93.
The same measure, in the same setting: next, `O=C(Nc1cccc(C(=O)Nc2ccc(S(=O)(=O)O)c3cc(S(=O)(=O)O)cc(S(=O)(=O)O)c23)c1)Nc1cccc(C(=O)Nc2ccc(S(=O)(=O)O)c3cc(S(=O)(=O)O)cc(S(=O)(=O)O)c23)c1` [Compound 873, NF 023]: 94.
Same read-out and setting: to `Cc1ncc(CNC(=O)N(CCCl)N=O)c(N)n1` [Compound 874, Nimustine hydrochloride] belongs 88; to `O=C1OC(=O)[C@H]2[C@@H]1[C@@H]1CC[C@H]2O1` [Compound 875, Norcantharidin], 76.
On the same count and under the same terms, to `COc1ccc2c(c1OC)C(=O)O[C@@H]2[C@H]1c2c(cc3c(c2OC)OCO3)CCN1C.Cl` [Compound 876, Noscapine hydrchloride] belongs 78.
For `CN1CCCC1c1cccnc1.Cc1ccc(C(=O)OC(C(=O)O)C(OC(=O)c2ccc(C)cc2)C(=O)O)cc1` (stereo not drawn) [Compound 877, (+)-Nicotine (+)-di-p-toluoyl tartrate], the “Compound effect (percent receptor signaling in presence of test compound, relative lux units relative to the SCH23390 control)” value is 80.
Same read-out and setting: to `Oc1ccc2c3c1O[C@H]1c4[nH]c5ccccc5c4C[C@@]4(O)[C@@H](C2)N(CC2CC2)CC[C@]314` [Compound 878, Naltrindole hydrochloride] belongs 81.
Still for that read-out and setting: next, `CCOC(=O)C1=C(C)NC(C)=C(C(=O)OC)C1c1cccc([N+](=O)[O-])c1` (stereo not shown) [Compound 881, Nitrendipine]: 103; `COCCOC(=O)C1=C(C)NC(C)=C(C(=O)OC(C)C)C1c1cccc([N+](=O)[O-])c1` (stereo not shown) [Compound 882, Nimodipine]: 102; `CNCCC(Oc1ccccc1OC)c1ccccc1` (stereo not shown) [Compound 883, Nisoxetine hydrochloride]: 84.
As for `CC(CCc1ccccc1)NC(C)C(O)c1ccc(O)cc1` (stereo not shown) [Compound 884, Nylidrin hydrochloride], the “Compound effect (percent receptor signaling in presence of test compound, relative lux units relative to the SCH23390 control)” value stood at 86.
Still for that read-out and setting: next, `Cn1cnc2c(NC3CCCC3)ncnc21` [Compound 885, N6-Cyclopentyl-9-methyladenine]: 105; `Oc1ccc2c3c1O[C@H]1c4oc5ccccc5c4C[C@@]4(O)[C@@H](C2)N(CC2CC2)CC[C@]314` [Compound 886, Naltriben methanesulfonate]: 102.
Still for that read-out and setting: next, `O=C(O)CCCCCCC1C(=O)NC(=O)N1CCC(O)C1CCCCC1` (stereo not shown) [Compound 888, BW 245C]: 120; `C=CCN1CC[C@]23c4c5ccc(O)c4O[C@H]2/C(=N/NC(=O)c2ccccc2)CC[C@@]3(O)[C@H]1C5` [Compound 889, Naloxone benzoylhydrazone]: 101; `O=c1[nH]c2cc(C(F)(F)F)ccc2n1-c1cc(C(F)(F)F)ccc1O` [Compound 890, NS-1619]: 86.
In the case of `C=CCN1CC[C@]23c4c5ccc(O)c4O[C@@H]2/C(=N/N=C2\CC[C@@]4(O)C6Cc7ccc(O)c8c7[C@@]4(CCN6CC=C)[C@@H]2O8)CC[C@@]3(O)C1C5.Cl.Cl` [Compound 891, Naloxonazine dihydrochloride], the “Compound effect (percent receptor signaling in presence of test compound, relative lux units relative to the SCH23390 control)” value is 86.
As for `O=c1onc2n1-c1cc(Br)ccc1OC2` [Compound 893, NS 2028], the “Compound effect (percent receptor signaling in presence of test compound, relative lux units relative to the SCH23390 control)” value came out at 98.
On the same count and under the same terms, to `CCn1cc(C(=O)O)c(=O)c2cc3c(cc21)OCO3` [Compound 896, Oxolinic acid] belongs 108.
As to `Cn1cnc2c(NCc3ccccc3)nc(NCCO)nc21` [Compound 897, Olomoucine], the “Compound effect (percent receptor signaling in presence of test compound, relative lux units relative to the SCH23390 control)” value was 47.
On the same count and under the same terms, next, `CCCCCCCC/C=C\CCCCCCCC(=O)O` [Compound 898, Oleic Acid]: 95.
As to `Cc1cc(C(C)(C)C)c(O)c(C)c1CC1=NCCN1` [Compound 899, Oxymetazoline hydrochloride], the “Compound effect (percent receptor signaling in presence of test compound, relative lux units relative to the SCH23390 control)” value came out at 84.
Same read-out and setting: next, `NC(=O)C(=O)O` [Compound 900, Sodium Oxamate]: 91; `CCN(CC)CC#CCOC(=O)C(O)(c1ccccc1)C1CCCCC1` (stereo not shown) [Compound 901, Oxybutynin Chloride]: 83; `NC(=O)CN1CC(O)CC1=O` (stereo not shown) [Compound 902, Oxiracetam]: 101.
The same measure, in the same setting: to `C[C@@H]1O[C@@H](O[C@H]2C[C@@H](O)[C@]3(CO)[C@H]4[C@H](O)C[C@]5(C)[C@@H](C6=CC(=O)OC6)CC[C@]5(O)[C@@H]4CC[C@]3(O)C2)[C@H](O)[C@H](O)[C@H]1O` [Compound 903, Ouabain] belongs 50.

Staying with this assay, now noted: 10 µM compound, 300 nM dopamine, 2 hr; hit = compound effect <20.
With `CC(Cc1ccc(O)c(O)c1)C(C)Cc1ccc(O)c(O)c1` (stereo not shown) [Compound 856, Nordihydroguaiaretic acid from Larrea divaricata (creosote bush)], the “Compound effect (percent receptor signaling in presence of test compound, relative lux units relative to the SCH23390 control)” value is 64%.
Same read-out and setting: next, `COC(=O)[C@@H](N)CCCN=C(N)N[N+](=O)[O-].Cl` [Compound 861, NG-Nitro-L-arginine methyl ester hydrochloride]: 96%; `NC(=O)C1=CN([C@@H]2O[C@H](COP(=O)(O)OP(=O)(O)OC[C@H]3O[C@@H](n4cnc5c(N)ncnc54)[C@H](OP(=O)(O)O)[C@@H]3O)[C@@H](O)[C@H]2O)C=CC1` [Compound 864, NADPH tetrasodium]: 92%; `O=Nc1ccc2oc(=O)ccc2c1` [Compound 871, 6-Nitroso-1,2-benzopyrone]: 93%.
Still for that read-out and setting: to `Cl.O=C(CCCN1CCC2(CC1)C(=O)N(CCc1ccc(N=C=S)cc1)CN2c1ccccc1)c1ccc(F)cc1` [Compound 879, N-(p-Isothiocyanatophenethyl)spiperone hydrochloride] belongs 83%; to `Cl.O=C(O)C1=CCCN(CCON=C(c2ccccc2)c2ccccc2)C1` [Compound 880, NO-711 hydrochloride], 81%.
Still for that read-out and setting: next, `COc1ccccc1N1CCN(CC(O)COc2cccc3ccccc23)CC1.Cl.Cl` (stereo not shown) [Compound 887, Naftopidil dihydrochloride]: 79%; `NS(=O)(=O)c1cccc2c1c([N+](=O)[O-])cc1nc([O-])c([O-])nc12.[Na+].[Na+]` [Compound 892, NBQX disodium]: 95%; `CCCCCCCC/C=C\CCCCCCCC(=O)NCCO` [Compound 895, N-Oleoylethanolamine]: 105%.

The same assay, now with this note: read-out: % of the SCH23390 effect (percent inhibition of receptor response relative to the SCH23390 control).
On to `CNCCC=C1c2ccccc2CCc2ccccc21` [Compound 863, Nortriptyline hydrochloride], for which the inhibition at 10 µM is 96%.

One may read the inhibition as the share of the control response that was lost under treatment.
